Measurements reported in publication PMC6348444, “New Water-Soluble Copper(II) Complexes with Morpholine–Thiosemicarbazone Hybrids: Insights into the Anticancer and Antibacterial Mode of Action” (Journal of Medicinal Chemistry, 2018).
Like-named read-outs stand apart in the source and are kept apart here. Marks after values point to notes of the source that are not given here.

Key:
[1] = test system: A2780 cells; test: MTT cytotoxicity assay, A2780; type: cell-based, human
[2] = test system: A2780cisR cells; test: MTT cytotoxicity assay, A2780cisR; type: cell-based, human; conditions: for RF (resistance factor): IC50(A2780cisR)/IC50(A2780); for IC50: MTT assay, 72 h exposure, cisplatin-resistant A2780cisR, read-out: IC50 A2780cis
[3] = test system: HEK293 cells; test: MTT cytotoxicity assay, HEK293; type: cell-based, human; conditions: for SF (selectivity factor): IC50(HEK293)/IC50(A2780); for IC50: MTT assay, 72 h exposure, noncancerous cells
[4] = test system: A2780 cells; test: Cellular accumulation of Cu by ICP-MS; type: cell-based, human; conditions: 24 h exposure
Source text: The ability of anticancer drugs to penetrate biological membranes, tissues, and barriers underlies their biological, pharmacokinetic, and metabolic properties. These properties can be predicted by calculating physicochemical characteristics of drug candidates using molecular descriptors.[30] […] The results are shown in Table S7 in the Supporting Information. On the basis of the calculated physicochemical parameters, we determined if novel compounds belonged to the drug-like chemical space, which is commonly defined by the well-known Lipinski rule, or to the known drug space (KDS), which includes all small compounds in medical use.[31] […] Following the calculations, we determined the lipophilicity of all compounds experimentally (log D7.4, Tables 1 and 2). It is known that cancer cells accumulate hydrophilic compounds to a smaller extent relative to hydrophobic compounds, thereby affecting their activity. […] As expected, proligands were more lipophilic than the corresponding Cu(II) species, which are positively charged at physiological pH (Figure 3b). […] The lipophilicity of 2–5 increased in the following order 4 < 2 < 3 < 5, and correlated well with their cytotoxicity in cancer cells, with the exception of 3. Subsequently, we determined the total cellular accumulation of Cu in A2780 cells by ICP–MS upon 24 h exposure to 1–6 in comparison with CuCl2 (Table 2). […] The accumulation increased in the order 6 < 1 < 3 < 4 < 2 < 5.
Cellular accumulation of 1–6 was determined in A2780 cells. Cells were seeded into Cellstar 6-well plates (Greiner Bio-one) at a density of 60 × 10^4 cells/well (2 mL per well). After the cells were allowed to resume exponential growth for 24 h, they were exposed to 1–6 at 1 μM for 24 h at 37 °C. The cells were washed twice with 1 mL of PBS and lysed with RIPA lysis buffer for 5–10 min at 4 °C. The cell lysates were scraped from the wells and transferred to separate 1.5 mL microtubes. The supernatant was then collected after centrifugation (13 000 rpm, 4 °C for 15 min) and total protein content of each sample was quantified via Bradford’s assay. Cell lysates were transferred to 2 mL glass vials and then digested with ultrapure 65% HNO3 at 100 °C for 24 h. The resulting solution was diluted to 1 mL (2–4% v/v HNO3) with ultrapure Milli-Q water. Cu content of each sample was quantified by ICP–MS. In was used as an internal standard. Cu and In were measured at m/z 64 and m/z 115, respectively. Metal standards for calibration curve (0, 0.5, 1, 2, 5, 10, 20, and 40 ppb) were freshly prepared before each measurement. All readings were made in triplicates in He mode. For temperature-dependent cellular accumulation experiments, A2780 cells were seeded into 35 n 10 mm tissue culture plates at a density of 60 0 10^4 cells/plate. After the cells were allowed to resume exponential growth for 24 h, they were exposed to 2 at 3 μM for 10, 30, 60, and 120 min at 37 and 4 °C. The subsequent analysis was performed as described above. For energy-dependent experiments, A2780 cells were seeded into 35 5 10 mm tissue culture plates at a density of 1 0 10^6 cells/plate. After the cells were allowed to resume exponential growth for 24 h, they were preincubated with oligomycin (5 μM) for 1 or 4 h or with cycloheximide (100 μM) for 4 h and further co-incubated with 3 μM of 2 at 37 °C. To induce total starvation, after the cells were allowed to resume exponential growth for 24 h, RPMI media was replaced with HBSS, and cells were preincubated in HBSS for 1 h and further incubated with 3 μM of 2 for 1 h at 37 °C. The subsequent analysis was performed as described above.

[5] = test system: A2780 cells; test: Annexin V/PI apoptosis assay; type: cell-based, human; conditions: A2780, concentration corresponding to Cu content in 2 at 2IC50
Source text: To elucidate if observed cytotoxicity of new compounds described in this study was a result of apoptosis induction, we conducted Annexin V/PI apoptosis assay. In brief, fluorochrome-labeled Annexin V reagent is used for detection of membrane phosphatidylserine (PS), which translocates to the cellular surface from the inner side of plasma membrane in the event of early apoptosis. Simultaneously, PI is used for detection of later stages of apoptosis or necrosis, which are characterized by loss of membrane integrity and accumulation of PI inside the cells. […] Results are illustrated in Figure 9. Upon incubation of A2780 cells with increasing concentrations of HL^2 and 2, the dose-dependent increase of apoptotic cells was observed.
A2780 cells were seeded into Cellstar 12-well plates (Greiner Bio-One) at a density of 20 × 10^4 cells/well (1 mL per well). The cells were allowed to resume exponential growth for 24 h and subsequently they were exposed to HL^2 and 2 at different concentrations for 24 h. After the supernatant solution was collected in 1.5 mL microtubes, the cells were washed with 100 μL of trypsin, which was combined with the supernatant. Subsequently, cells were trypsinized with 200 μL of trypsin for 5 min at 37 °C, 5% CO2, washed with 200 μL of PBS, and combined with the supernatant. The cells were centrifuged at 2.5 × 10^3 rpm for 5 min and the pellets were washed once with PBS and resuspended in 500 μL of Annexin V binding buffer and stained with Annexin V-FITC and PI reagents. The fluorescence was immediately analyzed by flow cytometry. The resulting dot blots were acquired from 10 000 events and quantified using Flowjo software (Flowjo LLC, Ashland, OR, USA).

[6] = n-octanol/water distribution coefficient, shake-flask; type: physicochemical; conditions: n-octanol/buffered aqueous solution, pH 7.40, UV-vis
Experimental: The titrations were carried out under a nitrogen atmosphere.

[7] = test system: Staphylococcus aureus CECT 86 (ATCC 12600); test: MIC microdilution, S. aureus; type: cell-based; conditions: planktonic cells; for S. aureus MIC50: growth inhibited at 50%; for S. aureus MIC100: lowest concentration completely inhibiting growth
Experimental: (§1) Wild-type P. aeruginosa PAO1 strain CECT 4122 (ATCC 15692) and S. aureus CECT 86 (ATCC 12600) were obtained from the Spanish Type Culture Collection (CECT). All strains were routinely cultivated in TSB medium (Sharlab, Spain) at 37 °C. MIC assays were determined by the microdilution method using TSB broth following the method described by the Clinical and Laboratory standards Institute.[94] In brief, compounds were diluted in a 96-well microtiter plate (tissue culture-treated polystyrene; […]

[8] = test system: Pseudomonas aeruginosa PAO1 CECT 4122 (ATCC 15692); test: MIC microdilution, P. aeruginosa; type: cell-based; conditions: planktonic cells; for P. aeruginosa MIC50: growth inhibited at 50%; for P. aeruginosa MIC100: lowest concentration completely inhibiting growth
Experimental: as §1

[9] = Solubility in water; type: physicochemical; conditions: sterile water stock solutions
Experimental: Human ovarian carcinoma cells A2780 and A2780cisR and human embryonic kidney HEK293 were obtained from ATCC. A2780 and A2780cisR cells were cultured in RPMI 1640 medium containing 10% FBS. HEK293 were cultured in DMEM medium containing 10% FBS. All cells were grown in tissue culture 25 cm^2 flasks (BD Biosciences, Singapore) at 37 °C in a humidified atmosphere of 95% air and 5% CO2. All drug stock solutions were prepared in sterile water. The amount of Cu was determined by ICP–OES.

[10] = Cyclic voltammetry, redox potentials; type: physicochemical; conditions: first reduction step; for E1/2 Red1 (DMSO) vs NHE / E1/2 Red1 (MeOH) vs NHE: vs NHE (in brackets)
Experimental: To assess the redox properties of 1-6, detailed electrochemical and spectroscopic studies in various solvents were performed using cyclic voltammetry as well as EPR-spectroelectrochemistry. Additionally, the UV-vis spectra of 1-5 were measured (Figure S8). […] The second reduction step occurred at -1.8 V versus Fc^+/Fc (-1.16 V vs NHE) and was less reversible, indicating a ligand-based reduction. […] In aqueous solutions, the reduction potentials shifted to the less negative values, and reduction was less reversible as shown for 2 in Figure S10. […] Cyclic voltammetric experiments were performed as described previously.[46] The cyclic voltammograms were measured in the cathodic region in different solvents (DMSO, methanol, DMSO/H2O). The analytical purity grade LiClO4 (Sigma-Aldrich) and distilled and deionized water were used for preparation of 1 mM aqueous solutions of the investigated complexes 1-6. EPR spectra were recorded with the EMX plus. In situ UV-vis-NIR spectroelectrochemical measurements were performed on a spectrometer (Avantes, Model AvaSpec-2048x14-USB2 in the spectroelectrochemical cell kit ([…]3)) with the Pt-microstructured honeycomb working electrode, purchased from Pine Research Instrumentation. The cell was positioned in the CUV-UV Cuvette Holder (Ocean Optics) connected to the diode-array UV-vis-NIR spectrometer by optical fibers. UV-vis-NIR spectra were processed using the AvaSoft 7.7 software package. Halogen and deuterium lamps were used as light sources (Avantes, Model AvaLight-DH-S-BAL). The in situ EPR spectroelectrochemical experiments were carried out under an argon atmosphere in the EPR flat cell equipped with a large platinum mesh working electrode. The freshly prepared solutions were carefully purged with argon and the electrolytic cell was polarized in the galvanostatic mode directly in the cylindrical EPR cavity TM-110 (ER 4103 TM), and the EPR spectra were measured in situ.

[11] = target: T1, mouse R2 RNR protein (Mus musculus, UniProt P11157); set-up: method as in PMID 21955844; conditions: mouse R2, after 5 min, same experimental conditions; cited from earlier work
T1 construct: made in house; host or cells: Escherichia coli
T1 sequence (P11157 1-390): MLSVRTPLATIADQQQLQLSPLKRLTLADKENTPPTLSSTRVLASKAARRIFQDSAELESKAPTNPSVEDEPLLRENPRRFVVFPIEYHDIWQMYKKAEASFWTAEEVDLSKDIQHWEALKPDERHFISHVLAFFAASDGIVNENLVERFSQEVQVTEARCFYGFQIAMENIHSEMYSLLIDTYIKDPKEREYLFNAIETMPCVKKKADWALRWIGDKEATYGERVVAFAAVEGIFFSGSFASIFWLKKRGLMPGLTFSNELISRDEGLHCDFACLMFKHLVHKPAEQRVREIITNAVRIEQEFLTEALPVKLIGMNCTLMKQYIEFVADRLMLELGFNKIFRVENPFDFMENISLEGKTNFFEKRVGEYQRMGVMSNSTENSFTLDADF

Structure (SMILES)	IC50 ([1]; 72 h exposure) [nM]	RF (resistance factor) [2]	IC50 [2] [µM]	SF (selectivity factor) [3]	IC50 [3] [µM]	log D7.4 [6]	cellular accumulation A2780 ([4]; 1 μM) [nmol Cu/mg protein]	S. aureus MIC50 [7] [µg/mL]	S. aureus MIC100 [7] [µg/mL]	P. aeruginosa MIC50 [8]	P. aeruginosa MIC100 [8]	solubility in water [9] [mM]	E1/2 Red1 (DMSO) vs Fc+/Fc [10]	E1/2 Red1 (DMSO) vs NHE [10]	E1/2 Red1 (MeOH) vs Fc+/Fc [10]	E1/2 Red1 (MeOH) vs NHE [10]	other results
[Cl][Cu][Cl] [CuCl2, reference compound]	83000 ± 12000	1.0	82 ± 3	2.3	187 ± 37	–	–	–	–	–	–	–	–	–	–	–	cellular accumulation A2780 ([4]; 2.5 μM): 0.17 ± 0.05 ^f nmol Cu/mg protein; induction of apoptosis [5]: no induction of apoptosis was detected
NC(=NN=Cc1ccc(CN2CCOCC2)cn1)[S][Cu][Cl] [complex 1, [Cu(L^1)Cl]]	2200 ± 100	5.9	13 ± 4	7.3	16 ± 2	–0.81 ± 0.04	0.63 ± 0.09	100	>500	NA (NA denotes no antibacterial activity detected (>500 μg/mL))	NA (NA denotes no antibacterial activity detected (>500 μg/mL))	≤ 2	–0.81 V	–0.17 V	–0.57 V	+0.07 V	–
[Cl][Cu][S]C(=NN=Cc1ccc(CN2CCOCC2)cn1)N1CCCC1 [complex 3, [Cu(L^3)Cl]]	260 ± 20	2.3	0.6 ± 0.05	3.0	0.78 ± 0.2	+0.86 ± 0.02	2.2 ± 0.6	3	10	100 µg/mL	400 µg/mL	0.3	–0.80 V	–0.16 V	–0.49 V	+0.15 V	–
NC(=S)N/N=C/c1ncccc1N [triapine, 3-amino-2-pyridinecarboxaldehyde TSC, reference compound]	–	–	–	0.6	–	–	–	–	–	–	–	–	–	–	–	–	IC50 ([1]; Homo sapiens, A2780, 72 h exposure): 670 ± 220 nM; IC50 ([2]; Homo sapiens): 1.1 ± 0.1 µM; IC50 ([3]; Homo sapiens, HEK293): 0.39 ± 0.05 µM; tyrosyl radical loss [11]: 100%
